Experimental data reported in patent publication US20160122821A1, “GENETIC MARKERS OF ANTIPSYCHOTIC RESPONSE” (SUREGENE, LLC, priority 2013, published 2016).

Test system: Caucasian patients with schizophrenia (CATIE)
Test: Genetic association (linear regression, additive model) of SNP alleles with MMRM-modelled change in PANSS Total Score under antipsychotic treatment, CATIE trial
Format: in vivo, human
Method: For the CATIE study, individual cases were diagnosed as having SZ based on DSM-III/IV criteria. Treatment response for all patients was assessed using the Positive and Negative Syndrome Scale (PANSS) (Kay et al., 1987; Kay et al., 1989; Leucht et al., 2005). […] To avoid possible bias in post hoc selection of a treatment response variable, the inventors used the mixed model repeated measures (MMRM) approach developed by van den Oord and coworkers (van den Oord et al., 2009). […] The design of the CATIE study, including details of consent for genetic analyses, has been described in detail by others (Lieberman et al., 2005; Stroup et al., 2003; Sullivan et al., 2008). Only retrospective genetic analyses, judged to be exempt from human studies requirements by an IRB, were conducted in the current study. Consented DNA samples were obtained from the Rutgers University Cell and DNA Repository in collaboration with […]. […] All of these patients self-reported as having exclusively European ancestry. […] Genotyping was performed on a fee for service basis according to Illumina's standard operating procedures. Raw intensity files were processed using Illumina® BeadStudio version 1.7.4 software. […] Only two of these had been previously genotyped in the CATIE sample. […] To allow comparison to previously published PGx findings for CATIE and to avoid possible bias in post-hoc selection of a treatment response variable, the inventors used the mixed model repeated measures (MMRM) approach developed by Van den Oord and coworkers (van den Oord et al., 2009; […] et al., 2011). Briefly, this method models random effects by introducing random slopes for treatment effects, allowing treatment effects to be different across subjects. The MMRM approach serves to increase the statistical power to detect genetic associations by increasing the precision in measuring change in PANSS Total Score (PANSS-T) by accounting for variance due to baseline PANSS-T, and treatment, as well as smoothing out the random fluctuations in PANSS-T between visits due to various uncontrolled variables. […] Bozeman, Mont.). Quantile-Quantile (QQ) plots were prepared using the R statistical package version 2.14.1. For comparison purposes, original CATIE-provided SNP genotypes in specific genes were evaluated using the same genetic analysis. Haplotype association integrating newly generated and original genotypes for specific regions was carried out in SVS using haplotype blocks predefined by Haploview software. […] For each of the SNPs listed the reference SNP (rs) number is provided, which provides the known sequence context for the given SNP (see, e.g., National Center for Biotechnology Information (NCBI) SNP database available on the world wide web at ncbi.nlm.nih.gov/snp).

Cc1cc2c(s1)Nc1ccccc1N=C2N1CCN(C)CC1 [Olanzapine, olanzapine]
Beta (PANSS) (ADAMTS9-AS2 rs17071651 allele C): −3.03 PANSS
Beta (PANSS) (AGAP1 rs4663220 allele T): −3.07 PANSS
Beta (PANSS) (ANK3 rs2893823 allele A): −4.47 PANSS
Beta (PANSS) (ANK3 rs10821660 allele G): −4.45 PANSS
Beta (PANSS) (APCDD1 rs1045584 allele G): −3.41 PANSS
Beta (PANSS) (ARHGAP31 rs751607 allele A): −4.30 PANSS
Beta (PANSS) (ARVCF rs2238794 allele C): −3.11 PANSS
Beta (PANSS) (ATP10A rs2291351 allele A): −4.99 PANSS
Beta (PANSS) (BIK rs5996274 allele A): −4.94 PANSS
Beta (PANSS) (CA10 rs741682 allele A): −5.58 PANSS
Beta (PANSS) (CACNA1B rs12352971 allele G): −4.21 PANSS
Beta (PANSS) (CACNG4 rs7219571 allele A): −5.84 PANSS
Beta (PANSS) (CAMK2D rs13113625 allele C): −3.68 PANSS
Beta (PANSS) (CDH13 rs3743621 allele C): −5.54 PANSS
Beta (PANSS) (CLIC5 rs35822882 allele G): −14.90 PANSS
Beta (PANSS) (CNTN4 rs1554561 allele T): −4.50 PANSS
Beta (PANSS) (CNTN4 rs4685501 allele T): −4.63 PANSS
Beta (PANSS) (CPNE5 rs12194367 allele T): −3.14 PANSS
Beta (PANSS) (CSMD1 rs2724972 allele G): −4.69 PANSS
Beta (PANSS) (CSMD1 rs7815861 allele C): −5.06 PANSS
Beta (PANSS) (DLGAP1 rs498419 allele A): −3.07 PANSS
Beta (PANSS) (DLGAP1 rs561434 allele A): −4.43 PANSS
Beta (PANSS) (EHD4 rs1048166 allele C): −3.04 PANSS
Beta (PANSS) (EHD4 rs1048175 allele C): −3.04 PANSS
Beta (PANSS) (EML1 rs34198557 allele C): −4.01 PANSS
Beta (PANSS) (ERBB4 rs7565257 allele A): −3.44 PANSS
Beta (PANSS) (ERG rs9981408 allele G): −3.15 PANSS
Beta (PANSS) (EXOC2 rs9405889 allele C): −3.21 PANSS
Beta (PANSS) (FAM170A rs2162856 allele A): −3.06 PANSS
Beta (PANSS) (FAM173B rs12652786 allele C): −3.39 PANSS
Beta (PANSS) (FBN3 rs2287937 allele C): −5.34 PANSS
Beta (PANSS) (FGF14 rs2390674 allele A): −4.22 PANSS
Beta (PANSS) (FHIT rs971866 allele A): −5.07 PANSS
Beta (PANSS) (FMNL2 rs4664113 allele C): −4.25 PANSS
Beta (PANSS) (FSTL5 rs13127909 allele C): −4.60 PANSS
Beta (PANSS) (GAN rs1345895 allele A): −3.53 PANSS
Beta (PANSS) (GAS7 rs9904524 allele G): −4.96 PANSS
Beta (PANSS) (GPC6 rs9301876 allele A): −4.68 PANSS
Beta (PANSS) (GRM8 rs17865066 allele A): −7.97 PANSS
Beta (PANSS) (GRM8 rs17865434 allele C): −7.97 PANSS
Beta (PANSS) (HTR1B rs11568817 allele G): −3.16 PANSS
Beta (PANSS) (IFT74 rs4463511 allele C): −3.77 PANSS
Beta (PANSS) (IL1RAP rs2361835 allele A): −3.93 PANSS
Beta (PANSS) (IL1RAP rs7642607 allele A): −3.93 PANSS
Beta (PANSS) (IL1RAP rs7642797 allele A): −3.93 PANSS
Beta (PANSS) (IL15 rs3806798 allele A): −4.33 PANSS
Beta (PANSS) (ITPR1 rs11717244 allele C): −3.53 PANSS
Beta (PANSS) (JPH2 rs2064381 allele A): −3.06 PANSS
Beta (PANSS) (KAZN rs12130605 allele C): −3.66 PANSS
Beta (PANSS) (KCND2 rs718805 allele A): −5.26 PANSS
Beta (PANSS) (KCND2 rs10953911 allele G): −5.26 PANSS
Beta (PANSS) (KCND2 rs11765060 allele C): −5.30 PANSS
Beta (PANSS) (KCNH1 rs4282878 allele C): −3.08 PANSS
Beta (PANSS) (KDM4C rs35389625 allele C): −11.20 PANSS
Beta (PANSS) (KITLG rs995029 allele C): −7.22 PANSS
Beta (PANSS) (LDB2 rs872478 allele C): −3.53 PANSS
Beta (PANSS) (LRP1B rs4591293 allele A): −3.04 PANSS
Beta (PANSS) (MACROD2 rs461651 allele A): −3.59 PANSS
Beta (PANSS) (MACROD2 rs6079429 allele A): −4.72 PANSS
Beta (PANSS) (MAGI2 rs848813 allele C): −4.34 PANSS
Beta (PANSS) (MAGI2 rs12705833 allele G): −2.87 PANSS
Beta (PANSS) (MCPH1 rs930557 allele C): −3.78 PANSS
Beta (PANSS) (MEPE rs3749575 allele A): −8.95 PANSS
Beta (PANSS) (MTIF3 rs12585587 allele A): −4.37 PANSS
Beta (PANSS) (NAB1 rs2293765 allele A): −4.60 PANSS
Beta (PANSS) (NELL1 rs4244549 allele C): −4.96 PANSS
Beta (PANSS) (NRXN1 rs11885824 allele A): −5.21 PANSS
Beta (PANSS) (NTRK2 rs1490403 allele A): −3.10 PANSS
Beta (PANSS) (NTRK2 rs1490407 allele G): −3.00 PANSS
Beta (PANSS) (NTRK2 rs4142909 allele C): −3.81 PANSS
Beta (PANSS) (NTSR2 rs7602721 allele C): −4.08 PANSS
Beta (PANSS) (PARD3B rs17283257 allele A): −3.82 PANSS
Beta (PANSS) (PCDH15 rs10825137 allele A): −4.89 PANSS
Beta (PANSS) (PCDH17 rs7319102 allele A): −3.47 PANSS
Beta (PANSS) (PCP4L1 rs6671288 allele C): −4.15 PANSS
Beta (PANSS) (PDGFD, DDI1 rs2279789 allele C): −4.42 PANSS
Beta (PANSS) (PEBP4 rs13271643 allele C): −5.41 PANSS
Beta (PANSS) (PI4KA, SERPIND1 rs78656 allele C): −7.22 PANSS
Beta (PANSS) (PKNOX2 rs1044314 allele G): −4.14 PANSS
Beta (PANSS) (PKP4 rs11680160 allele A): −4.33 PANSS
Beta (PANSS) (PRDM2 rs6429793 allele A): −3.13 PANSS
Beta (PANSS) (PSD3 rs7016207 allele C): −6.20 PANSS
Beta (PANSS) (PTPRT rs6030084 allele A): −2.96 PANSS
Beta (PANSS) (RASGEF1C rs2278661 allele C): −3.04 PANSS
Beta (PANSS) (RBFOX1 rs7194775 allele C): −4.37 PANSS
Beta (PANSS) (RIMS1 rs9446639 allele C): −3.56 PANSS
Beta (PANSS) (RNF144A rs7605141 allele C): −4.00 PANSS
Beta (PANSS) (ROBO2 rs4343667 allele C): −4.96 PANSS
Beta (PANSS) (RORA rs12910376 allele C): −3.38 PANSS
Beta (PANSS) (SCN3A rs10048748 allele C): −5.44 PANSS
Beta (PANSS) (SEC16B rs16852158 allele C): −6.45 PANSS
Beta (PANSS) (SGCZ rs10503525 allele C): −3.05 PANSS
Beta (PANSS) (SGCZ rs13278000 allele A): −2.91 PANSS
Beta (PANSS) (SLC6A5 rs1443547 allele A): −3.31 PANSS
Beta (PANSS) (SLC16A4 rs12126959 allele A): −4.16 PANSS
Beta (PANSS) (SLC16A9 rs16913940 allele A): −6.05 PANSS
Beta (PANSS) (SLC35F3 rs12759054 allele C): −3.34 PANSS
Beta (PANSS) (SPOCK1 rs1051854 allele G): −6.02 PANSS
Beta (PANSS) (WDR90 rs1057835 allele A): −3.10 PANSS
Beta (PANSS) (ZNF169 rs9409514 allele C): −3.04 PANSS
